From ChEMBL document CHEMBL5465560, “Selectivity Literature for EUbOPEN Chemogenomic Library” (2024)

Legend:
[1] = target: Macrophage colony-stimulating factor 1 receptor (Homo sapiens) (UniProt P07333); assay: Selectivity interaction (KinomeScan (DiscoverX)) EUB0000666a CSF1R; conditions: at 10 µM
[2] = target: STE20-like serine/threonine-protein kinase (Homo sapiens, UniProt Q9H2G2); assay: Selectivity interaction (ActivX KiNativ screen (kinase selectivity in THP-1 cell lysates)) EUB0000639a SLK; format: subcellular; conditions: lysate, at 0.01 µM
Chain of STE20-like serine/threonine-protein kinase (Q9H2G2 whole entry, looked up): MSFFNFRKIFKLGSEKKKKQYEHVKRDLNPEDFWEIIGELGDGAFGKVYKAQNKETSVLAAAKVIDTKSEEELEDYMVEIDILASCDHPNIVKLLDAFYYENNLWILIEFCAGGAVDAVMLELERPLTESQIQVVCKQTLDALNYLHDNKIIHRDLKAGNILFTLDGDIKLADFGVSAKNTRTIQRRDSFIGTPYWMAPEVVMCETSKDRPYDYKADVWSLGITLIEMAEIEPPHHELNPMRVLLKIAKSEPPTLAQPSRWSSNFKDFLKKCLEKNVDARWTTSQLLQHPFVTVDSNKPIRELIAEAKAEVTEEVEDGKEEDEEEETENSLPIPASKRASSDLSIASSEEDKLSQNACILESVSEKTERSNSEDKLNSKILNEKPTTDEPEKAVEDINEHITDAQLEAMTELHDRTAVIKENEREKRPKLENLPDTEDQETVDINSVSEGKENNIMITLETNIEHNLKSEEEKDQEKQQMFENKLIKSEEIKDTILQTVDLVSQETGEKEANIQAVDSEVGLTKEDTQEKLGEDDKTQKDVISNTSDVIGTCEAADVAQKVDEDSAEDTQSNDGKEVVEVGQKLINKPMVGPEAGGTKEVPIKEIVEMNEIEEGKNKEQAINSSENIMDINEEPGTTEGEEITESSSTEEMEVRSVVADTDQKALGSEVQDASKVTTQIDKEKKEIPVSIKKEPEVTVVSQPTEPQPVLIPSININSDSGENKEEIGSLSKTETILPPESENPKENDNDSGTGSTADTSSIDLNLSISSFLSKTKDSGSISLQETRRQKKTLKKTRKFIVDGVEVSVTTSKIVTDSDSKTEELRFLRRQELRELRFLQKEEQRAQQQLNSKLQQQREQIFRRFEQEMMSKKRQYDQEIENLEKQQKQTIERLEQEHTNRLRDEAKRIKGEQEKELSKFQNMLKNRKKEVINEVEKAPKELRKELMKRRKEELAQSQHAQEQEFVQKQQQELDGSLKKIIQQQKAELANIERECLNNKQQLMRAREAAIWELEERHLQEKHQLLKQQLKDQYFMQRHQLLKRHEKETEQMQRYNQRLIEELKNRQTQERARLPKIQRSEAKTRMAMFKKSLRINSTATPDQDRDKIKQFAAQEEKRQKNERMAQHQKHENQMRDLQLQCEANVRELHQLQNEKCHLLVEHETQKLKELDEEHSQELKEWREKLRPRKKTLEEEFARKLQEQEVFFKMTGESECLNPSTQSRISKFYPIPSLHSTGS

[3] = target: T1, Serine/threonine-protein kinase tousled-like 1 (Homo sapiens) (UniProt Q9UKI8); assay: Selectivity interaction (ActivX KiNativ screen (kinase selectivity in THP-1 cell lysates)) EUB0000639a TLK1; format: subcellular; conditions: lysate, at 0.2 µM
T1 sequence (whole entry): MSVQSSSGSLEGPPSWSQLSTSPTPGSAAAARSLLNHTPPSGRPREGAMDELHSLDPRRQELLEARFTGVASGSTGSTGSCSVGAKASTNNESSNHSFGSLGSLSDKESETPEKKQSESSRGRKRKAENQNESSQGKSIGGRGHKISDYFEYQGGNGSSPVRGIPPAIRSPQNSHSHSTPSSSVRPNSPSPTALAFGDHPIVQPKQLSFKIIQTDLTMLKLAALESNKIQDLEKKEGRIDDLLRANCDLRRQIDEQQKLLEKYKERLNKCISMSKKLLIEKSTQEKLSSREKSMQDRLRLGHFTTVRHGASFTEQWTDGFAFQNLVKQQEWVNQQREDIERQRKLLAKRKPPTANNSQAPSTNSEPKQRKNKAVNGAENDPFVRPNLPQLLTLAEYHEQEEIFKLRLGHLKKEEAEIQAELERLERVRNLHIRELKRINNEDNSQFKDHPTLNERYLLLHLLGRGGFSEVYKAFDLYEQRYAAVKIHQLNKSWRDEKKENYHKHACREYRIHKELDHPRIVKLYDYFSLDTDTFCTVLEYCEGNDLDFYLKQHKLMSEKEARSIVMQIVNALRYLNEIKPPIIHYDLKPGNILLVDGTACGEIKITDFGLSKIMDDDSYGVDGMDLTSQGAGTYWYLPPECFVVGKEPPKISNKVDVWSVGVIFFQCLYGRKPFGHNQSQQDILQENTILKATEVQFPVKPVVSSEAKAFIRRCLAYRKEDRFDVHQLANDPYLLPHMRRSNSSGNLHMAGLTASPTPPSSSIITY

[4] = target: Bone morphogenetic protein receptor type-1A (Homo sapiens, UniProt P36894); assay: Selectivity interaction (KinomeScan (DiscoverX)) EUB0000595a BMPR1A; conditions: at 10 µM
Chain of Bone morphogenetic protein receptor type-1A (P36894 whole entry): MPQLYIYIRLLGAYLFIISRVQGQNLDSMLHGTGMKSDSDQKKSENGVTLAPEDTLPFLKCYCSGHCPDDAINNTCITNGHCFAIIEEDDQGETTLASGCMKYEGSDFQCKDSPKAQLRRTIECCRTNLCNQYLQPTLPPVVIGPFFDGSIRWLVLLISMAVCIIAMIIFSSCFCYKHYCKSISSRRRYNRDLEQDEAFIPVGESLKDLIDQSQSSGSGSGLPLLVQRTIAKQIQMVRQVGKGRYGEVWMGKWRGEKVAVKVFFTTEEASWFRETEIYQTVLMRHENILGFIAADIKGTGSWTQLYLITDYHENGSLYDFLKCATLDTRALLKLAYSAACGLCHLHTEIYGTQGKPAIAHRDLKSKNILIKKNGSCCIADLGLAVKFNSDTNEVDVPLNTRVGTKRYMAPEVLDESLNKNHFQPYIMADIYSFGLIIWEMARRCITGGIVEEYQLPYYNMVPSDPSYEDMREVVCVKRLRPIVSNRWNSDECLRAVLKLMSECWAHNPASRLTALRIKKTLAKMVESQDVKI

[5] = target: T2, Membrane-associated tyrosine- and threonine-specific cdc2-inhibitory kinase (Homo sapiens) (UniProt Q99640); assay: Selectivity interaction (KinomeScan (DiscoverX)) EUB0000595a PKMYT1; conditions: at 10 µM
T2 sequence (whole entry): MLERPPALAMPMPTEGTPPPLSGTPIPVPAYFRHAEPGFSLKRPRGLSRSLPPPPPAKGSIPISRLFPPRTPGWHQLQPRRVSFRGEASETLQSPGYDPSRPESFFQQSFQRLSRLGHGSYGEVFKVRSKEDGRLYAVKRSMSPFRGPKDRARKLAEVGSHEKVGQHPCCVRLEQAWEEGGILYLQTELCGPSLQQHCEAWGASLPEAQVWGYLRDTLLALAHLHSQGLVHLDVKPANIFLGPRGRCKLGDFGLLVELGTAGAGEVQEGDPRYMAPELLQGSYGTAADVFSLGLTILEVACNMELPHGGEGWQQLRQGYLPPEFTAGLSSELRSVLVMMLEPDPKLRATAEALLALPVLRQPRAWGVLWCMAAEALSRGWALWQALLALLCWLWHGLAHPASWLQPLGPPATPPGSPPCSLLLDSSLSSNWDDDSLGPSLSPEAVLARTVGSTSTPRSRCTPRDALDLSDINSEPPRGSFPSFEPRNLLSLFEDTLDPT

[6] = target: T3, Serine/threonine-protein kinase D1 (Homo sapiens) (UniProt Q15139); assay: Selectivity interaction (KinomeScan (DiscoverX)) EUB0000045b PRKD1
T3 sequence (whole entry): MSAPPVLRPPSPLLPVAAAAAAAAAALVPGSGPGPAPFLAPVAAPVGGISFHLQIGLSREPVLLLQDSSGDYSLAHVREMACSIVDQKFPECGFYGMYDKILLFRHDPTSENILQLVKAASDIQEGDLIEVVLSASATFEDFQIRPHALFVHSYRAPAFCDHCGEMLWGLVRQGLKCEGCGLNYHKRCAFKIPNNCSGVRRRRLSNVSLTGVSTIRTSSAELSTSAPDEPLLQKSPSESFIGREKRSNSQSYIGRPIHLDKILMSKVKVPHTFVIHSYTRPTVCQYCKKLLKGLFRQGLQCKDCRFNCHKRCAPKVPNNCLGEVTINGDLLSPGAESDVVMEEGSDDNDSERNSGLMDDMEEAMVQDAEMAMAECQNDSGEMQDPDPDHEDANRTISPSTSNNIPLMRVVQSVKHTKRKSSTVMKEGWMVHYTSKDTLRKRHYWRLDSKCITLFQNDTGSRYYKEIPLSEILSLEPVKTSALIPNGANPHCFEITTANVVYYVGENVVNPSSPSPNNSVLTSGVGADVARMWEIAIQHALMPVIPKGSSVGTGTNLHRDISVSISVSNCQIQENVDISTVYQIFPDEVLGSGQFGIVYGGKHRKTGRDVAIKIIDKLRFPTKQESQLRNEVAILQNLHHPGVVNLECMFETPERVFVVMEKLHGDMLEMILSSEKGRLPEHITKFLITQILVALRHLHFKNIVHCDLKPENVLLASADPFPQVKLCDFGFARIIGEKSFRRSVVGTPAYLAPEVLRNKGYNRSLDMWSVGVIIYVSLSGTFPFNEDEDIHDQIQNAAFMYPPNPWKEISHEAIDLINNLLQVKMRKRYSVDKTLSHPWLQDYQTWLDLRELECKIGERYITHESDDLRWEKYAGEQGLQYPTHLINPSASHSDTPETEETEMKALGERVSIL

[7] = target: T4, Aurora kinase A (Homo sapiens) (UniProt O14965); conditions: at 10 µM
T4 sequence (whole entry): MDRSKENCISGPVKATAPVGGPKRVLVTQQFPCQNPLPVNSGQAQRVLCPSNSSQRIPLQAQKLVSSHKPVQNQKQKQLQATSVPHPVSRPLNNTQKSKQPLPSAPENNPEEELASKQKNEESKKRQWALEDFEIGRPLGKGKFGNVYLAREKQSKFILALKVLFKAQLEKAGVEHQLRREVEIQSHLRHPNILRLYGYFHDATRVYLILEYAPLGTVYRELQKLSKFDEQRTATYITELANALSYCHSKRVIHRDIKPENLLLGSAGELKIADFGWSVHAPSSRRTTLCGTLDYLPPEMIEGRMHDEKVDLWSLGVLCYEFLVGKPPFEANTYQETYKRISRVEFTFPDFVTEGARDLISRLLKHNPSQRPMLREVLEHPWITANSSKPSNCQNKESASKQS

[8] = target: Tyrosine-protein kinase JAK1 (Homo sapiens, UniProt P23458); conditions: at 10 µM
Chain of Tyrosine-protein kinase JAK1 (P23458 whole entry): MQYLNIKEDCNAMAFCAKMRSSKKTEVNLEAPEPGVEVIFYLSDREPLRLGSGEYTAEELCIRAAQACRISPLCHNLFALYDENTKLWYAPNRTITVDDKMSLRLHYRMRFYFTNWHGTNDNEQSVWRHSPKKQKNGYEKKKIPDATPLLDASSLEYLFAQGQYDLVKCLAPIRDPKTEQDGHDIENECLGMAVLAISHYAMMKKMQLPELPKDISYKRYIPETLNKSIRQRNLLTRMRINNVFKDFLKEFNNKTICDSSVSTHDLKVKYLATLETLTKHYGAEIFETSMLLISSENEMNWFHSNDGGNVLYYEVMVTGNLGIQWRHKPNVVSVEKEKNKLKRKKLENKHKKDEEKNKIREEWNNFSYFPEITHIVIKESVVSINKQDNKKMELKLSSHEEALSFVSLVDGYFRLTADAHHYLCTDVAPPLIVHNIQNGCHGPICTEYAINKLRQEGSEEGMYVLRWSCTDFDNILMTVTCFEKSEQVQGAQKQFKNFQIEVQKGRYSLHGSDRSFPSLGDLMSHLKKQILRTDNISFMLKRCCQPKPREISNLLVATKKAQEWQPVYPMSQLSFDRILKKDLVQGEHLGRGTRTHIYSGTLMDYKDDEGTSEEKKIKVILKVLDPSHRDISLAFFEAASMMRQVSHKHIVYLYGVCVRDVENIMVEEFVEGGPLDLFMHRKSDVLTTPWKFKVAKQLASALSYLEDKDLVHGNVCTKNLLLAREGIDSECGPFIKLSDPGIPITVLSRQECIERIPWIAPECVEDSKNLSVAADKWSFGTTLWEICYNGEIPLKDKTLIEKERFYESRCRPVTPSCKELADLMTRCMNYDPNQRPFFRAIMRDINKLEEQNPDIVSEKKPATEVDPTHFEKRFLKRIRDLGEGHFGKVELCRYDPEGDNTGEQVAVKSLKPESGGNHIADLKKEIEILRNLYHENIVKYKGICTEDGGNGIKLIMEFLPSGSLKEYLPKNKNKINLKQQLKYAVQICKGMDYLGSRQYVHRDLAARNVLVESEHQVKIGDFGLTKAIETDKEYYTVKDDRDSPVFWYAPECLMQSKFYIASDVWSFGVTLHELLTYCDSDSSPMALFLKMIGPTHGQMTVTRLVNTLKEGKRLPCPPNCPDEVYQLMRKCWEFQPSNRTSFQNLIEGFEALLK

Chain of Macrophage colony-stimulating factor 1 receptor (Homo sapiens) (P07333 whole entry): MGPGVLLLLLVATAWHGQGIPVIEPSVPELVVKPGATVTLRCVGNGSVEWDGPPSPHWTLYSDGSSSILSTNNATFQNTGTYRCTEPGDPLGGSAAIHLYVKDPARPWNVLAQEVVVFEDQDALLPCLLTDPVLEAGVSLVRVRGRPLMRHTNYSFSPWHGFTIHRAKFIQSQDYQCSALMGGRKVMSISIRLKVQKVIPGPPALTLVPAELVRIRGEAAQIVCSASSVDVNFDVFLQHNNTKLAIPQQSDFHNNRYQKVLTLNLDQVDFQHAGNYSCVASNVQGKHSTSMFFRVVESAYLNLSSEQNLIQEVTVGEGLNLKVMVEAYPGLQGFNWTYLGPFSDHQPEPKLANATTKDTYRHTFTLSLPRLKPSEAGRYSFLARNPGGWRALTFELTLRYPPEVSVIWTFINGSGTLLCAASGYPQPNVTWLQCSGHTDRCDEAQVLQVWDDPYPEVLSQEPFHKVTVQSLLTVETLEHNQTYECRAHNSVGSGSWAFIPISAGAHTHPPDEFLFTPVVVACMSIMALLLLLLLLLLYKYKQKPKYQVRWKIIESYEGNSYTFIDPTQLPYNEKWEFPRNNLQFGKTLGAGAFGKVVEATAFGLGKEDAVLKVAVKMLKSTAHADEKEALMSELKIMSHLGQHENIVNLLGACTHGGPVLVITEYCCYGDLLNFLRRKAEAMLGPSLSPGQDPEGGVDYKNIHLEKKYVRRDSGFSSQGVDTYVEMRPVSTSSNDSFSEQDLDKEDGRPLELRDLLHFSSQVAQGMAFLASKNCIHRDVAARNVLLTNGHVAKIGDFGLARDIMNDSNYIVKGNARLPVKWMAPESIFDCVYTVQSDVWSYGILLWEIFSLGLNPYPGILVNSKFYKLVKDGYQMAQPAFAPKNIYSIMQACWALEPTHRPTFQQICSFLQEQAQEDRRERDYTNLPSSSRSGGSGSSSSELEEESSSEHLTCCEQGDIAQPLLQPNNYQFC

O=C(NOC[C@H](O)CO)c1ccc(F)c(F)c1Nc1ccc(I)cc1F
% of control [1]: 80%

CC[C@@H]1[C@H](F)C(=O)N[C@@H]1COc1nccc2cc(C(N)=O)c(OC)cc12 [ZIMLOVISERTIB]
% of inhibition [2]: -0.7%
% of inhibition [3]: 9.2%

COCC(=O)NC/C=C/c1ccc2ncnc(Nc3ccc(Oc4ccc(C)nc4)c(C)c3)c2c1 [CP-724714]
% of control [4]: 100%
% of control [5]: 100%

C=CC(=O)Nc1cc(-n2c(=O)ccc3cnc4ccc(-c5ccc(NS(C)(=O)=O)cc5)cc4c32)ccc1C
% of control ([6]; at 1 µM): 100%
% of control ([6]; at 10 µM): 84%

Cc1cc([C@@H](C)Nc2ccccc2C(=O)O)c2nc(N3CCOCC3)cc(=O)n2c1 [AZD-6482]
% of control [7]: 100%
% of control [8]: 100%
